The source of these data is a melting point compilation (Tetko et al.; mined from patent text by program, amines drawn as free bases though some values may be those of a salt).

Turning to `Cc1cnc(CCc2ccccc2)n2c1c(CCCl)c1ccccc12`, the melting point lay within 144 to 145 °C.
For `CC(=O)CCCCC(=O)Nc1ccc(C=CC(=O)O)cc1` the value was 222 to 225 °C; for `O=C1c2c(Cl)cccc2S(=O)(=O)N1Cn1nnn(-c2ccccc2)c1=S`, 158 to 162 °C; for `COC(=O)CCCC#Cc1cc(Cl)ccc1NS(=O)(=O)c1ccc2nc(N)sc2c1`, 61 to 65 °C.
For `O=C(O)c1cc(CO)ccc1O` the value was 108 to 110 °C; for `COC1=CCc2cccc(N)c2C1`, 84 to 85 °C.
The result for `O=S(=O)(Br)c1cccc2cccnc12` reads 142 to 144 °C; that for `C1=CNC2=NCCN2C1`, 107 to 113 °C; that for `CCCCCCCCCCCCCCCCCCOc1cc(OCCCOc2ccc(S(C)(=O)=O)cc2)cc(C(=O)OC)c1`, 101 to 102 °C.
Consider `C#CCOC(=O)C=Cc1csc(Cl)c1Cl`, for which the melting point lay in the range of 84 to 86 °C.
For `CC#COc1ccc2c(=O)cc(-c3ccccc3)oc2c1` the value was 199 to 200 °C; for `COc1ccc(C(=O)N2CCc3nnc(NN)cc3C2)cc1`, 169 to 172 °C.
In the case of `COC(=O)c1c(N)cc(OC)c(OC)c1OC`, the melting point is 94 to 96 °C.
The result for `CN(Cc1cc2c3c(c1)c(=O)c(C(=O)NCc1ccc(F)cc1)cn3CC(=O)N2C)C[C@@H](O)c1cnccn1` reads 108 to 110 °C; that for `O=C(NC(=O)c1c(Cl)cccc1Cl)Nc1ccc(C(F)(F)F)cn1`, 228 to 230 °C.
The result for `CS(=O)(=O)c1ccc(-c2cnn(CC(F)(F)F)c(=O)c2-c2ccc(Cl)c(Cl)c2)cc1` reads 197 to 198 °C; that for `COc1ccc(-c2[nH]cnc2-c2cc(OC)c(Br)c(OC)c2)cc1O`, 185 to 187 °C.
For the compound `CCCCC(CC)C(=O)Nc1ccc2ccn(Cc3ccc(C(=O)OC(=O)N(c4ccccc4)c4ccccc4)cc3OC)c2c1` (centres undefined), the melting point lay within 159 to 162 °C.
Turning to `CCCOc1ccc(-c2ccc3c(c2)C=C(C(=O)Nc2ccc(C(O)c4ccccn4)cc2)CCS3(=O)=O)cc1` (centres undefined), the melting point lay within 208 to 210 °C.
The result for `O=C(Nc1nc2c(s1)CC(N1CCN(c3ccccn3)CC1)CC2)c1ccccc1` (centres undefined) reads 230 to 232 °C.
In the case of `O=C(O)Cc1ccc(O)c(Cl)c1Cl`, the melting point was 105 to 106 °C.
The result for `Cc1ccc(C2CCCN2S(=O)(=O)c2ccc(F)cc2)c(C)c1` (racemic) reads 134 °C; that for `CC(C)(S)CN1CCN(CCOCCO)CC1`, 38 °C.
For `CCOC(=O)C(=CNc1ccnn1-c1ccccc1)C(=O)OCC` the value was 96 to 97 °C.
The result for `Cc1c(C#N)c(-c2ccc(C#N)cc2)c(C)n1Cc1ccc(Cl)c(CO)c1` reads 189 °C.
Compound `COc1cccc(C(F)(F)F)c1O` gave a melting point of 51 to 53 °C.
The result for `CCCC(C(C)C)C(CN)CC(=O)O` (centres undefined) reads 160 to 170 °C; that for `CCCc1nc2c(N)nc3cc(OCc4cccc(N)c4)ccc3c2n1CC(C)C`, 228 to 230 °C.
For `CC1(C)OC(=O)c2c(O)cccc21` the value was 128 to 134 °C; for `COC(=O)[C@@H]1[C@@H](O[Si](C)(C)C(C)(C)C)CCN1C(=O)Nc1ccc(C#N)c(Cl)c1C`, 123 to 125 °C.
The result for `C=C(NC(C)=O)c1ccc(F)cn1` reads 61 to 62.2 °C; that for `CC(C)S(=O)(=O)c1ccc2c(c1)nc(CC(C)(C)C)n2CC1(O)CCOCC1`, 189 °C; that for `CC(C)(C)NCC(O)c1ccc(N)c(F)c1F` (centres undefined), 133 to 135 °C.
In the case of `CN(C)S(=O)(=O)c1ccc(Cl)c(-c2csc(=Nc3ccccc3)n2C)c1`, the melting point lay within 195 to 197 °C.
For `CCSC(=O)N(C=C(C#N)C#N)c1cccc(Cl)c1` the value was 68 °C; for `CN(Cc1ccccc1)CC1Nc2ccccc2Cn2cccc21` (centres undefined), 147 to 149 °C.
The result for `COc1ccc2c(c1)OCC21C(=O)N(Cc2cccnc2)c2ccccc21` (centres undefined) reads 164 to 165 °C; that for `COCCc1nc2c(N)nc3ccccc3c2n1CC(C)(C)CNC(=O)c1ccccc1`, 103 to 125 °C; that for `COc1ccc(Br)cc1CC1CCCn2c1nc(-c1ccncn1)cc2=O` (racemic), 178 to 180 °C.
For `Cc1nccc(N2CCN(C(=O)C3CCN(S(=O)(=O)c4ccc(Br)cc4)CC3)CC2)n1` the value was 239 to 240 °C; for `CC(Cn1ncnn1)n1nnc2cc3c(=O)n(C(C)Cn4ncnn4)nnc3cc2c1=O` (centres undefined), 64 to 66 °C.
In the case of `CCc1c(Br)c(C#N)nn1C`, the melting point lay within 72 to 74 °C.
The result for `C=C1N(CC)C(=O)OC12CCN(CCCN1c3ccccc3Sc3ccccc31)CC2` reads 122 to 123 °C; that for `COc1cc(-c2nc(NCCC(=O)O)c3c(C)c(C#N)sc3n2)cc(OC)c1OC`, 222 to 225 °C.
Consider `CC(=O)c1cc2c(Cl)cc(F)c(-n3c(=O)cc(C(F)(F)F)n(C)c3=O)c2o1`, for which the melting point lay within 193 to 194 °C.
For `CCCCN1C(=O)CC(=O)NC1=O` the value was 107 to 108 °C; for `COc1ccc(S(N)(=O)=O)cc1C(=O)NC1CCN(C2CCCCC2)C1` (centres undefined), 184 to 187 °C.
For `CC(C)N1CCN(C(=O)COC2c3ccccc3C(=O)N2c2ccc3ccc(Cl)nc3n2)CC1` (centres undefined) the value was 186 °C.
On to `CC(=O)N1CCN(Cc2ccc(CCn3cnc4cc(-c5ccc(Cl)cc5)sc4c3=O)cc2)C(=O)C1`, for which the melting point fell in the range of 204 to 207 °C.
The result for `CCCCCOc1ccc(C=O)cc1OCCCCC` reads 31 to 32.5 °C; that for `N#Cc1ccc2oc(CCc3ccc(C(=O)On4nnc5ccccc54)cc3)cc2c1`, 171 to 172 °C; that for `CNC(=O)Oc1ccc(CN2CCN(c3ccc([N+](=O)[O-])cc3)CC2)cc1OC`, 155 to 157 °C.
The result for `CC1(C)CC(=O)CC(C)(C)N1SSSSN1C(C)(C)CC(=O)CC1(C)C` reads 148 to 150 °C.
The result for `COC(=O)c1c(C(F)F)nc(C(F)(F)F)c(N=COCC2CO2)c1CC(C)C` (centres undefined) reads 41 to 43 °C.
In turn, `CC1=C(C(=O)OCc2ccccc2)C(c2ccccc2C(F)(F)F)c2c(ccnc2OC(C)C)N1` (centres undefined) showed a melting point of 131 °C.
The result for `COc1ccc(C=Cc2cc(OC)c(OC)c(OC)c2)c(O)c1O` reads 114 to 115 °C; that for `CCNC(=O)c1sc(S(C)=O)cc1[Si](C)(C)C` (centres undefined), 71 to 76 °C.
For `Nc1nc2ccccc2c2c1ncn2CCCCNC(=O)CCc1ccccc1` the value was 148 to 150 °C.
The result for `CC(=O)OCC1SC(N2CCc3ccccc32)C(OC(C)=O)C(OC(C)=O)C1OC(C)=O` (centres undefined) reads 163 to 165 °C; that for `COC(=O)C(=Cc1c[nH]c2cc(Cl)ccc12)NC(C)=O`, 202 to 203 °C; that for `COCCN1C(=O)CCC(C)(C)c2ccc(Nc3ncc(Cl)c(Nc4c(F)cccc4OCC#N)n3)cc21`, 235 to 238 °C.
With `N#Cc1cnc2cnc(Cl)cc2c1Nc1cccc(Br)c1`, the melting point lay in the range of 220 to 223 °C.
The result for `Clc1c2ccccc2nc2occc12` reads 112 to 113 °C.
Compound `CS(=O)(=O)c1ncc(F)c(N)n1` came in with a melting point of 157 to 159 °C.

By melting point is commonly meant the temperature of the solid-liquid transition.
